Reference: ChEMBL document CHEMBL1126394, “Synthesis of 1-(2-Indolyl)pyridinium salts: a prodrug approach to acetylcholinesterase inhibition” (Bioorg Med Chem Lett, 1992)

What was measured:
[1] = target: Acetylcholinesterase (Electrophorus electricus, UniProt O42275); assay: Inhibitory activity against acetylcholinesterase as a prodrug was demonstarted
[2] = pKa value was determined; type: physicochemical

Acetylcholinesterase, sequence (O42275 whole entry): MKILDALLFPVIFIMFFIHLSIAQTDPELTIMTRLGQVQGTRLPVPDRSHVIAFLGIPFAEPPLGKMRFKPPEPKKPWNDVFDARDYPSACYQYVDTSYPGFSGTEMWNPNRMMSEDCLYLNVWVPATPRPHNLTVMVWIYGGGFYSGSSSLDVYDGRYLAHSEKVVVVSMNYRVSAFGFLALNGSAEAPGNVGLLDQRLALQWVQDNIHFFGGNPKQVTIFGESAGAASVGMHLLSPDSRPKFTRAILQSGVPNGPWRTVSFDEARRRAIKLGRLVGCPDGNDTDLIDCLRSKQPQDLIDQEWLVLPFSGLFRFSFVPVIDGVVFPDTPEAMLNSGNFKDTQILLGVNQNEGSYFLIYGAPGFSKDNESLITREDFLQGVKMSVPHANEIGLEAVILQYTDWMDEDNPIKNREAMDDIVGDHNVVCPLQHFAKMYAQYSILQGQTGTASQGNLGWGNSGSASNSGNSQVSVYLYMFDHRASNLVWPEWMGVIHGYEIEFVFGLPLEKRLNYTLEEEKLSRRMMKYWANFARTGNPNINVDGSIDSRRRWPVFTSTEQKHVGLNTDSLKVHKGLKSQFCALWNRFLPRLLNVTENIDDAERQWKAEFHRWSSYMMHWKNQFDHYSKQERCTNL

Row | Compound | IC50 [1] [µM] | pKa [2]
1 | CC1c2cc(OC(=O)N(C)C)ccc2NC1[n+]1cccc(C(N)=O)c1 (configuration not stated) | 50 | 
2 | CNC(=O)Oc1ccc2c(c1)[C@]1(C)CCN(C)[C@@H]1N2C [PHYSOSTIGMINE] |  | 7.9
